In article PMC4018220 (Transplantation, 2014):
Read-outs that look alike come from different tables or passages of the source.

Assays:
[1] = for Median [IQR] AUC: TAC, all weeks, dose and weight adjusted
[2] = cited from earlier work
clinical = details: human, in vivo

## C=CC[C@@H]1/C=C(\C)C[C@H](C)C[C@H](OC)[C@H]2O[C@@](O)(C(=O)C(=O)N3CCCC[C@H]3C(=O)O[C@H](/C(C)=C/[C@@H]3CC[C@@H](O)[C@H](OC)C3)[C@H](C)[C@@H](O)CC1=O)[C@H](C)C[C@@H]2OC [TAC, tacrolimus]
[1]; NNRTIs dosed with TAC
  Change in AUC over time: No change
[1]; TAC given with protease inhibitors with or without NNRTIs
  Increase over time of dose and weight adjusted AUC: ~ 30%
[1]; TAC with NNRTIs alone
  Change of Tmax over time: decreased
[1]; TAC with combination PI+NNRTIs
  Change of Tmax over time: doubled
[1]; +NNRTI
  Median [IQR] AUC: 3142 [2121-5157] ng*hr/mL/mg/kg
[1]; +PI
  Median [IQR] AUC: 26889 [17208-42250] ng*hr/mL/mg/kg
[1]; +PI/NNRTI
  Median [IQR] AUC: 12587 [8524-18780] ng*hr/mL/mg/kg
[1]; W2, C0, NNRTI (n=4)
  Median Tac Cx: 199 ng/mL/mg/kg
[1]; W2, C0, PI (n=4)
  Median Tac Cx: 963 ng/mL/mg/kg
[1]; W2, C1, NNRTI (n=4)
  Median Tac Cx: 225 ng/mL/mg/kg
[1]; W2, C1, PI (n=4)
  Median Tac Cx: 1045 ng/mL/mg/kg
[1]; W2, C2, NNRTI (n=4)
  Median Tac Cx: 338 ng/mL/mg/kg
[1]; W2, C2, PI (n=4)
  Median Tac Cx: 1687 ng/mL/mg/kg
[1]; W2, C3, NNRTI (n=4)
  Median Tac Cx: 280 ng/mL/mg/kg
[1]; W2, C3, PI (n=4)
  Median Tac Cx: 2325 ng/mL/mg/kg
[1]; W2, C4, NNRTI (n=4)
  Median Tac Cx: 272 ng/mL/mg/kg
[1]; W2, C4, PI (n=4)
  Median Tac Cx: 2332 ng/mL/mg/kg
[1]; W12, C0, NNRTI (n=4)
  Median Tac Cx: 213 ng/mL/mg/kg
[1]; W12, C0, PI (n=4)
  Median Tac Cx: 638 ng/mL/mg/kg
[1]; W12, C1, NNRTI (n=4)
  Median Tac Cx: 420 ng/mL/mg/kg
[1]; W12, C1, PI (n=4)
  Median Tac Cx: 1590 ng/mL/mg/kg
[1]; W12, C2, NNRTI (n=4)
  Median Tac Cx: 368 ng/mL/mg/kg
[1]; W12, C2, PI (n=4)
  Median Tac Cx: 2049 ng/mL/mg/kg
[1]; W12, C3, NNRTI (n=4)
  Median Tac Cx: 290 ng/mL/mg/kg
[1]; W12, C3, PI (n=4)
  Median Tac Cx: 2341 ng/mL/mg/kg
[1]; W12, C4, NNRTI (n=4)
  Median Tac Cx: 296 ng/mL/mg/kg
[1]; W12, C4, PI (n=4)
  Median Tac Cx: 2550 ng/mL/mg/kg
[1]; W28, C0, NNRTI (n=3)
  Median Tac Cx: 193 ng/mL/mg/kg
[1]; W28, C1, NNRTI (n=3)
  Median Tac Cx: 497 ng/mL/mg/kg
[1]; W28, C2, NNRTI (n=3)
  Median Tac Cx: 368 ng/mL/mg/kg
[1]; W28, C3, NNRTI (n=3)
  Median Tac Cx: 275 ng/mL/mg/kg
[1]; W28, C4, NNRTI (n=3)
  Median Tac Cx: 223 ng/mL/mg/kg
[1]; W52, C0, NNRTI (n=4)
  Median Tac Cx: 148 ng/mL/mg/kg
[1]; W52, C1, NNRTI (n=4)
  Median Tac Cx: 301 ng/mL/mg/kg
[1]; W52, C2, NNRTI (n=4)
  Median Tac Cx: 322 ng/mL/mg/kg
[1]; W52, C3, NNRTI (n=4)
  Median Tac Cx: 242 ng/mL/mg/kg
[1]; W52, C4, NNRTI (n=4)
  Median Tac Cx: 208 ng/mL/mg/kg
[2]; HCV-positive liver transplant, p=0.12
  Association of higher TAC levels with new onset DM (OR): 2.21
[2]; NIH multicenter trial
  Correlation of higher TAC trough levels with rejection: decreased rejection rates
clinical
  Tmax: 2 to 3 h
